Measured values: patent US12227520B2 (priority 2019, dated 2025)
Like-named read-outs stand apart in the source and are kept apart here.

What was measured:
[1] = test system: HIV-1 (IIIB); assay: Antiviral assay in MT-4 cells (HIV MT-4 antiviral assay); assay type: cell-based; details: HIV-1 (IIIB) in MT-4 cells, 5 days incubation
Experimental: Compounds were tested in a high-throughput 384-well assay format for their ability to inhibit the replication of HIV-1 (IIIB) in MT-4 cells. Compounds were serially diluted (1:3) in DMSO on 384-well polypropylene plates and further diluted 200-fold into complete RPMI media (10% FBS, 1% P/S) using the Biotek Micro Flow and Labcyte ECHO acoustic dispenser. Each plate contained up to 8 test compounds, with negative (No Drug Control) and 5 μM AZT positive controls. MT-4 cells were pre-infected with 10 μL of either RPMI (mock-infected) or a fresh 1:250 dilution of HIV-1 IIIB concentrated virus stock. Infected and uninfected MT-4 cells were further diluted in complete RPMI media and added to each plate using a Micro Flow dispenser. After 5 days incubation in a humidified and temperature controlled incubator (37° C.), Cell Titer Glo (Promega) was added to the assay plates and chemiluminescence read using an Envision plate-reader.

[2] = Cytotoxicity assay in MT-4 cells; assay type: cell-based, human; details: human, uninfected MT-4 cells, 5 days incubation; read-out: CC50
Experimental: Each plate contained up to 8 test compounds, with negative (No Drug Control) and 5 μM AZT positive controls. MT-4 cells were pre-infected with 10 μL of either RPMI (mock-infected) or a fresh 1:250 dilution of HIV-1 IIIB concentrated virus stock. Infected and uninfected MT-4 cells were further diluted in complete RPMI media and added to each plate using a Micro Flow dispenser. After 5 days incubation in a humidified and temperature controlled incubator (37° C.), Cell Titer Glo (Promega) was added to the assay plates and chemiluminescence read using an Envision plate-reader. […] Assays were performed as above except uninfected MT-4 cells were added to each well containing test compound. In addition, 10 μM puromycin was added to the last column of each assay plate to assess a base level of cytotoxicity.

[3] = test system: pLai RLuc reporter virus; assay: microbe, parasite or virus in culture; assay type: cell-based, HIV; details: Human immunodeficiency virus 1, 72 h
Experimental: To quantify the amount of protein binding to human serum, compounds were serially diluted (1:3) in DMSO and acoustically transferred onto 384-well assay plates via a Labcyte ECHO robot. Each plate contained up to 8 test compounds, including negative and positive controls, (DMSO, 5 μM AZT respectively). Assay plates were prepared in duplicate, and tested in either CCM (cell culture media) or HS/CCM (human serum/cell culture media). MT-4 cells were first pre-infected with pLai RLuc reporter virus for 2 h at 37° C., then further diluted in either CCM (RPMI media, 10% FBS, 1% P/S) or HS/CCM (RPMI media, 10% FBS, 50% HS, 1% P/S), and subsequently added to each plate using a Biotek Micro Flow dispenser. After a 72-h incubation in a humidified and temperature controlled incubator (37° C.), Renilla Glo (Promega) was added to all assay plates and chemiluminescence read using an Envision plate-reader. […] To determine the amount of protein binding, EC50 fold shifts (or EC50 shifts) were calculated by dividing EC50 (HS/CCM)/EC50 (CCM).

[4] = Human immunodeficiency virus 1, IIIB, MT4, 120 h, read-out: EC50

EC50 [1, 4] [nM] | Compound | CC50 at 5 days [2] [nM] | EC50 [1] [nM] | EC50 ([3]; read-out: Antiviral Serum Shift RLuc 50% HS, HS/CCM (RPMI media, 10% FBS, 50% HS, 1% P/S), 72-h incubation) [nM] | EC50 ([3]; read-out: Antiviral Serum Shift RLuc CCM, CCM (RPMI media, 10% FBS, 1% P/S), 72-h incubation) [nM]
10.3 | O=C(NCc1c(F)cc(F)cc1F)c1cn2c(c(O)c1=O)C(=O)N1CCCC2CC1 (single isomer, unassigned) [Example 24-1, 11-hydroxy-1,10-dioxo-N-(2,4,6-trifluorobenzyl)-1,3,4,5,6,10-hexahydro-2,6-ethanopyrido[1,2-a][1,4]diazocine-9-carboxamide] | 13600 | – | – | –
21.4 | O=C(NCc1ccc(F)cc1F)c1cn2c(c(O)c1=O)C(=O)N1C[C@H]2CCc2ccccc21 (single isomer, unassigned) [Example 37-1] | 10500 | – | – | –
1.2 | O=C(NCc1ccc(F)cc1F)c1cn2c(c(O)c1=O)C(=O)N1C[C@@H]2CCc2ccccc21 (single isomer, unassigned) [Example 37-2] | 12900 | – | – | –
8.14 | O=C(NCc1c(F)cc(F)cc1F)c1cn2c(c(O)c1=O)C(=O)N1CCc3ccccc3[C@@H]2C1 (single isomer, unassigned) [Example 63-2] | 14300 | – | – | –
56.9 | O=C(NCc1ccc(F)cc1F)c1cn2c(c(O)c1=O)C(=O)N1CCc3cc(F)c(F)cc3[C@@H]2C1 (single isomer, unassigned) [Example 111-2] | 9940 | – | – | –
3.93 | O=C(NCc1c(F)cc(F)cc1F)c1cn2c(c(O)c1=O)C(=O)N1Cc3ccc(Cl)cc3C[C@@H]2C1 (single isomer, unassigned) [Example 127-2] | 13700 | – | – | –
7.37 | O=C(NCc1ccc(F)cc1F)c1cn2c(c(O)c1=O)C(=O)N1Cc3ccc(Cl)cc3C[C@@H]2C1 (single isomer, unassigned) [Example 128-2] | > 50000 | – | – | –
3.36 | Cc1noc2c1CN1C[C@H](C2)n2cc(C(=O)NCc3c(F)cc(F)cc3F)c(=O)c(O)c2C1=O (single isomer, unassigned) [Example 135-1] | > 50000 | – | – | –
4.77 | Cc1noc2c1C[C@H]1CN(C2)C(=O)c2c(O)c(=O)c(C(=O)NCc3c(F)cc(F)cc3F)cn21 (single isomer, unassigned) [Example 135-2] | > 50000 | – | – | –
6.4 | O=C(NCc1ccc(F)cc1F)c1cn2c(c(O)c1=O)C(=O)N1C[C@H]2CCC(F)(F)C1 [Example 4-1, (7R)—N-(2,4-difluorobenzyl)-4,4-difluoro-12-hydroxy-1,11-dioxo-1,4,5,6,7,11-hexahydro-3H-2,7-methanopyrido[1,2-a][1,4]diazonine-10-carboxamide] | 23300 | – | – | –

The remaining lines, values behind:

Compound | EC50 [1, 4] [nM] | CC50 at 5 days [2] [nM] | EC50 [1] [nM] | EC50 ([3]; read-out: Antiviral Serum Shift RLuc 50% HS, HS/CCM (RPMI media, 10% FBS, 50% HS, 1% P/S), 72-h incubation) [nM] | EC50 ([3]; read-out: Antiviral Serum Shift RLuc CCM, CCM (RPMI media, 10% FBS, 1% P/S), 72-h incubation) [nM]
O=C(NCc1c(F)cc(F)cc1F)c1cn2c(c(O)c1=O)C(=O)N1CCCC2CC1 (racemic) [Example 24, 11-hydroxy-1,10-dioxo-N-(2,4,6-trifluorobenzyl)-1,3,4,5,6,10-hexahydro-2,6-ethanopyrido[1,2-a][1,4]diazocine-9-carboxamide] | 27.3 | 13800 | – | – | –
O=C(NCc1ccc(F)cc1F)c1cn2c(c(O)c1=O)C(=O)N1CCCOCC2C1 (racemic) [rac-1, N-(2,4-Difluorobenzyl)-13-hydroxy-1,12-dioxo-1,4,5,7,8,12-hexahydro-3H-2,8-methanopyrido[1,2-d][1,4,7]oxadiazecine-11-carboxamide] | 3.9 | > 47900 | – | – | –
CC1(F)CCCN2CC1n1cc(C(=O)NCc3ccc(F)cc3F)c(=O)c(O)c1C2=O (single isomer, unassigned) [Example 17-1a, N-(2,4-difluorobenzyl)-6-fluoro-12-hydroxy-6-methyl-1,11-dioxo-1,4,5,6,7,11-hexahydro-3H-2,7-methanopyrido[1,2-a][1,4]diazonine-10-carboxamide] | 1.5 | 12900 | – | – | –
O=C(NCc1ccc(F)cc1F)c1cn2c(c(O)c1=O)C(=O)N1CC2CCc2cc(F)ccc21 (single isomer, unassigned) [Example 55-1] | – | 13000 | > 89.4 | – | –
O=C(NCc1c(F)cc(F)cc1F)c1cn2c(c(O)c1=O)C(=O)N1CC2CCc2sccc21 (stereo in doubt) [Example 104-2, (11S)-6-hydroxy-5,7-dioxo-N-(2,4,6-trifluorobenzyl)-5,7,12,13-tetrahydro-11H-4,11-methanopyrido[1,2-a]thieno[3,2-e][1,4]diazonine-8-carboxamide] | 35.3 | 14000 | – | – | –
O=C(NCc1c(F)cc(F)cc1F)c1cn2c(c(O)c1=O)C(=O)N1CCCC(O)C2C1 (centres unmarked) [Example 11, 6,12-dihydroxy-1,11-dioxo-N-(2,4,6-trifluorobenzyl)-1,4,5,6,7,11-hexahydro-3H-2,7-methanopyrido[1,2-a][1,4]diazonine-10-carboxamide] | 7.2 | > 50000 | – | – | –
O=C(NCc1ccc(F)cc1F)c1cn2c(c(O)c1=O)C(=O)N1CCCC(O)C2C1 (centres unmarked) [Example 12, N-(2,4-difluorobenzyl)-6,12-dihydroxy-1,11-dioxo-1,4,5,6,7,11-hexahydro-3H-2,7-methanopyrido[1,2-a][1,4]diazonine-10-carboxamide] | 4.1 | > 50000 | – | – | –
O=C(NCc1ccc(F)cc1F)c1cn2c(c(O)c1=O)C(=O)N1CCCC(F)C2C1 (centres unmarked) [Example 13, N-(2,4-difluorobenzyl)-6-fluoro-12-hydroxy-1,11-dioxo-1,4,5,6,7,11-hexahydro-3H-2,7-methanopyrido[1,2-a][1,4]diazonine-10-carboxamide] | 1.3 | 17200 | – | – | –
CC12CCCCN(C1)C(=O)c1c(O)c(=O)c(C(=O)NCc3c(F)cc(F)cc3F)cn12 (centres unmarked) [Example 18, 12-hydroxy-7-methyl-1,11-dioxo-N-(2,4,6-trifluorobenzyl)-1,4,5,6,7,11-hexahydro-3H-2,7-methanopyrido[1,2-a][1,4]diazonine-10-carboxamide] | 1.4 | 29400 | – | – | –
O=C(NCc1ccc(F)cc1F)c1cn2c(c(O)c1=O)C(=O)N1CCCC2CC1 (centres unmarked) [Example 23, N-(2,4-difluorobenzyl)-11-hydroxy-1,10-dioxo-1,3,4,5,6,10-hexahydro-2,6-ethanopyrido[1,2-a][1,4]diazocine-9-carboxamide] | 59.9 | 12000 | – | – | –
O=C(NCc1ccc(F)cc1F)c1cn2c(c(O)c1=O)C(=O)N1C(=O)C2CCc2ccccc21 (centres unmarked) [Example 27, N-(2,4-difluorobenzyl)-7-hydroxy-6,8,15-trioxo-6,8,13,14-tetrahydro-12H-5,12-methanobenzo[e]pyrido[1,2-a][1,4]diazonine-9-carboxamide] | > 100 | 10900 | – | – | –
O=C(NCc1ccc(F)cc1F)c1cn2c(c(O)c1=O)C(=O)N1CCOC[C@@H]2C1 [Example 28, (7S)—N-(2,4-difluorobenzyl)-12-hydroxy-1,11-dioxo-1,3,4,6,7,11-hexahydro-2,7-methanopyrido[1,2-d][1,4,7]oxadiazonine-10-carboxamide] | 13.5 | > 50000 | – | – | –
O=C(NCc1ccc(F)cc1F)c1cn2c(c(O)c1=O)C(=O)N1CCOC[C@H]2C1 [Example 29, (7R)—N-(2,4-difluorobenzyl)-12-hydroxy-1,11-dioxo-1,3,4,6,7,11-hexahydro-2,7-methanopyrido[1,2-d][1,4,7]oxadiazonine-10-carboxamide] | 7 | > 50000 | – | – | –
O=C(NCc1ccc(F)cc1F)c1cn2c(c(O)c1=O)C(=O)N1CCNCC2C1 (centres unmarked) [Example 30, N-(2,4-difluorobenzyl)-12-hydroxy-1,11-dioxo-1,4,5,6,7,11-hexahydro-3H-2,7-methanopyrido[1,2-a][1,4,7]triazonine-10-carboxamide] | 6.9 | 1660 | – | – | –
O=C(NCc1c(F)cc(F)cc1F)c1cn2c(c(O)c1=O)C(=O)N1CC=C(F)C[C@H]2C1 [Example 133, (7S)-5-fluoro-12-hydroxy-1,11-dioxo-N-(2,4,6-trifluorobenzyl)-1,6,7,11-tetrahydro-3H-2,7-methanopyrido[1,2-a][1,4]diazonine-10-carboxamide] | – | – | – | 1.66 | 0.533
